Test results as given in patent publication US20220175750A1, “SUSTAINED RELEASE FORMULATION FOR LOCAL DELIVERY OF CDK9 INHIBITORS” (The Regents of the University of California, priority 2019, published 2022).

What was measured:
[1] = In vitro release of CDK9 inhibitor from microparticles in PBS-Tween; type: physicochemical; conditions: PCL
[2] = as above; type: physicochemical; conditions: PLGA
Procedure: (§1) FIG. 6: Flavopiridol was encapsulated at 1% w/v ratio in PLGA microparticles (MPs) synthesized using Purasorb® PDLG 5004A (Corbion) in methylene chloride at 20% w/v ratio and vortexed vigorously for 30 seconds after addition of polyvinyl alcohol (10%) at 2:1 ratio. The solution was then added dropwise to 1% PVA and mixed overnight, with 3× washes next day and lyophilized overnight. […] FIG. 6B: Linear standard curve for different concentrations of flavopiridol in solution of dissolved PLGA in DMSO acquired with Nanodrop 2000 Spectrophotometer at 274 nm. […] FIG. 6D: SEM image of flavopiridol MPs using a Phillips XL30 Microscope.
Flavopiridol release from the particles was quantified over 42 days in PBS-Tween®, by absorbance at 247 nm.
(B) Release: The release characteristics of the microparticles prepared above were determined using the procedure set forth in Example 2.

[3] = Microparticle drug loading / loading efficiency; type: physicochemical; conditions: for incorporation of inhibitor (adequacy): PLGA
Procedure: as §1
Preparation of poly(lactic-co-glycolic) acid (PLGA) or polycaprolactone (PCL) particles with CDK9 inhibitors was performed using a single emulsion-solvent evaporation technique. Briefly, 500 mg of PLGA or PCL was dissolved in 2.5 mL of 2% v/v dimethylsulfoxide in methylene chloride (for PLGA) or chloroform (for PCL). […] The solutions were vortexed at full speed (30 seconds for PLGA or 45 seconds for PCL) to form microparticles. The microparticle suspensions were transferred to 150 mL of 1% poly(vinyl alcohol), and stirred for 24 hours. The particles were pelleted, washed with water, lyophilized and stored at −20° C. for further use. Size distribution was measured using an AccuSizer model 770 optical particle sizer (Particle Sizing Systems).
For example, SNS-032 has a 30.7% loading efficiency, such that of the 2 g of starting SNS-032, about 0.61 g was encapsulated in the PLGA microparticles. Lower amounts of drug encapsulation result in less inhibitor per microparticle. If the loading efficiency decreases below a certain threshold, the amount of microparticles required to deliver a therapeutic dose of the CDK9 inhibitor can become prohibitive (for cost, efficiency, injection volume, and potentially, an adverse reaction of the treated subject to the administered microparticles).

ACL-rupture in mice = assay: Primary response gene mRNA expression after ACL-rupture knee injury, systemic flavopiridol; type: in vivo
NFκB target genes = assay: Gene expression in primary human chondrocytes treated with IL-1β with or without flavopiridol; type: cell-based
Excerpt: CDK9 inhibition effectively suppresses the transcription of primary inflammatory response genes.
CDK9 inhibitors exert effects on the inflammatory response pathway.

Compound | % release ([1]; Day 3) [%] | % release ([1]; Day 7) [%] | % release ([2]; Day 1) [%] | % release ([2]; Day 3) [%] | % release ([2]; Day 5) [%] | % loading efficiency ([3]; PCL microparticles) [%] | % loading efficiency ([3]; PLGA microparticles) [%] | amount encapsulated in the PLGA microparticles ([3]; of the 2 g of starting SNS-032) | incorporation of inhibitor (adequacy) [3] | incorporation of inhibitor (adequacy) ([3]; listed as dinaciclib) | repeated versus single administration (IL-1β, IL-6 gene expression) (ACL-rupture in mice; 0, 1, or 2 administrations) | mRNA expression of pro-inflammatory cytokines IL-1β and IL-6 at the injured site (ACL-rupture in mice; 4-8 hours post-injury, intraperitoneal injection) | window after injury during which flavopiridol is effective at preventing transcription of primary response genes (ACL-rupture in mice; delay before administration) | house-keeping gene 18S rRNA, Collagen Type 2 and aggrecan expression (ACL-rupture in mice; mouse, in vivo) | average magnitude of repression (of maximum induction) of IL-1β-induced genes (NFκB target genes; 300 nM flavopiridol, 10 ng/mL IL-1β, 5 hours) [%] | number of IL-1β-induced genes repressed by flavopiridol co-treatment (NFκB target genes; of 67 genes induced by IL-1β (84 NFκB target genes tested))
Voruciclib | 0.36 | 0.43 | 3.4 | 4.8 | 6.5 | 1.1 | 59.9 |  |  |  |  |  |  |  |  | 
CC(C)(C)c1cnc(CSc2cnc(NC(=O)C3CCNCC3)s2)o1 [SNS-032] | 0 | 0 | 4.0 | 5.4 | 7.0 | 0.3 | 30.7 | about 0.61 g |  |  |  |  |  |  |  | 
CCc1cnn2c(NCc3ccc[n+]([O-])c3)cc(N3CCCC[C@H]3CCO)nc12 [Dinaciclib] |  |  |  |  |  |  |  |  | not encapsulated effectively | failed to incorporate an adequate amount |  |  |  |  |  | 
CN1CC[C@H](c2c(O)cc(O)c3c(=O)cc(-c4ccccc4Cl)oc23)[C@H](O)C1 [flavopiridol, 2-(2-chlorophenyl)-5,7-dihydroxy-8-[(3S,4R)-3-hydroxy-1-methyl-4-piperidinyl]-4-chromenone] |  |  |  |  |  |  |  |  |  |  | more effective than a single administration | effectively and selectively suppressed | at least 3 hours | not affected | > 86 | 59
